Test results as given in patent publication US20060247156A1, “Use of neuropeptides for ligament, cartilage, and bone healing” (priority 2004, published 2006).
Entries after “also recorded” stand apart in the source; their conditions may differ.

Assays:
intact and healing MCLs = assay: Intact and healing MCL after in vivo capsaicin: mechanical testing, healing, histomorphology; parameters: species or system rat
Description: In Group 2, control rats (n=6) were injected with an equal volume of 0.9% saline. […] These rats were also divided into two groups. […] After 3 days of treatment, both groups underwent a surgical rupture of one MCL. Contralateral MCLs were used as sham controls. All rats were maintained in their normal cage environment for 10 days. Then, they were sacrificed as noted above. Femur-MCL-tibia (FMT) complexes were then harvested and tested as above.
Injections were made into a site between the scapulae. […] Bupivicaine was also administered subcutaneously at the site of the capsaicin injection. […] Into Group 2 (n=6 animals) and Group 4 (n=9 animals), a similar volume of sterile saline was injected via the same method. All other medications were given as in the treated groups. There were no signs of infection, discomfort, or unusual behavior in the treated rats. […] Contralateral legs were used as sham controls.
Mechanical Testing: Mechanical testing was performed as described in the previous examples. Briefly, animal hind limbs from all groups (n=4 Group 1; n=4 Group 2; n=4 Group 3; n=4 Group 4) were disarticulated at the hip joint and stored at −80° C. until testing. On the day of testing, MCLs including intact femoral and tibial bone sections were excised for ex vivo testing. Ligament thickness and width was measured optically, and MCL area was estimated with elliptical geometry. For strain measurements, optical markers were placed onto the ligament tissue near the insertion sites. A small preload of 0.1N was applied to the ligaments in order to obtain a uniform starting point. The ligaments were then preconditioned to 1% strain for 10 cycles. After preconditioning, ligaments were pulled to failure at a rate of ˜10% per second. Tissue displacement was obtained using video dimensional analysis using equations (1) and (2) infra. The mechanical properties that were examined in this study were maximum force, ultimate stress, strain at failure, elastic modulus, and area. Statistical analysis was performed using an unpaired t-test (p=0.05) to analyze differences between the control and treatment group.
Ligaments were immediately fixed in formalin fixative for three days at room temperature. Specimens were embedded in paraffin, sectioned (6 μm), mounted on slides, and stained with hematoxylin and eosin (H&E).

[1] = test system: MCL neuropeptide concentration (SP, CGRP, NPY, VIP); assay: Neuropeptides in MCL after capsaicin (RIA, immunofluorescence); assay type: in vivo, rat
Description: Injections were made into a site between the scapulae. […] Into Group 2 (n=6 animals) and Group 4 (n=9 animals), a similar volume of sterile saline was injected via the same method. All other medications were given as in the treated groups. […] Contralateral legs were used as sham controls.
Neuropeptide Radioimmunoassay: Four MCLs from all groups were used for quantification of neuropeptide concentrations via RIA. MCLs were homogenized using a mortar and pestle.
Each ligament was then incubated in two […] appropriately tagged (AMCA or Rhodamine; Chemicon, Temecula, Calif.) secondary antibodies.

MCL [2] = assay: MCL organ culture with capsaicin, mechanical testing; parameters: species or system rat
MCL [3] = assay: MCL organ culture with guanethidine, mechanical testing; settings: organ culture 10 days with guanethidine in media
Description: Bilateral MCLs (n=6) including intact femoral and tibial segments were aseptically harvested from untreated rats.
During and after harvest, tissues were rinsed in sterile phosphate buffered saline (PBS) containing penicillin (100 U/mL), streptomycin (100 μg/mL), and fungizone (0.25 μg/mL). Bone blocks were trimmed in order to minimize the amount of bone marrow, which may alter the culture environment. Tissues were then cultured in Dulbecco's Modified Eagle's Medium (DMEM) supplemented with 10% fetal bovine serum, nonessential amino acids (0.1 mM), L-gutamine (4 mM), penicillin (100 U/mL), streptomycin (100 μg/mL), and fungizone (0.25 μg/mL). […] The cultures were maintained in an incubator at 37° C. and 5% CO2. Media were changed every 48 hours at which time tissues were rinsed with sterile PBS to reduce drug carryover into the fresh media containing the treatment drug or equivalent volume of carrier. Organ culture was maintained for 10 days after which time the MCLs were tested mechanically in the same manner as the in vivo treatment group (described below).

[4] = test system: sympathetic nervous system; settings: rat, in vivo
Description: For all groups, anesthesia (isofluorane 0.5-3%) was initiated in an induction chamber and maintained with a facemask. […] Both groups were survived for 10 days following implantation of the pump at which time the animals were euthanized with intraperitoneal injection of pentobarbitone. Throughout the study only one ligament per animal was used for a particular experimental test protocol (described below).
Statistical analysis was performed using an unpaired t-test (alpha=0.05) to compare differences between the control and treatment groups.

intact MCL = settings: guanethidine 40 mg/kg/day, 10 days
Description: Ligament thickness and width was measured optically, and MCL area was estimated with elliptical geometry. […] For strain measurements, optical markers were placed onto the ligament tissue near the insertion sites. A small preload of 0.1N was applied to the ligaments in order to obtain a uniform starting point. The ligaments were then preconditioned to 1% strain for 10 cycles.
The mechanical properties that were examined in this study were maximum force, ultimate stress, strain at failure, elastic modulus, and area.

[5] = second study, Group 3: capsaicin 50 mg/kg/day x3 days, ruptured MCL, healing
[6] = Group 3: ruptured MCL, capsaicin 50 mg/kg/day for three days, two weeks of healing

| Compound | histomorphology (H&E) of healing MCL (intact and healing MCLs; capsaicin treated, two weeks of healing) | healing of MCL and skin wounds (in words) (intact and healing MCLs; capsaicin-treated rats with MCL rupture) | ultimate stress of the ruptured ligament (intact and healing MCLs; first study: capsaicin 50 mg/kg, MCL rupture after 3 days of treatment, n=3) | ultimate stress of intact MCLs (intact and healing MCLs; first study: capsaicin 50 mg/kg, intact MCL, 10 days) | abnormalities in movement, body weight, or behavior (intact and healing MCLs; following initial recovery from capsaicin injection) | failure force, ultimate stress, failure strain, area, and elastic modulus of intact MCL (intact and healing MCLs; second study, Group 1 vs Group 2, intact MCL) | failure force (intact and healing MCLs; [5]) | ultimate stress (intact and healing MCLs; [5]) | CGRP concentration in MCL (RIA) ([1]; Group 1: intact MCL, capsaicin 50 mg/kg/day s.c. for three days, 10 days after last injection) | CGRP concentration in MCL (RIA) [1, 6] | NPY concentration in MCL (RIA) [1, 6] | SP concentration in MCL (RIA) [1, 6] | VIP concentration in MCL (RIA) [1, 6] | ultimate stress (MCL [2]; organ culture 10 days with capsaicin in media) | ultimate force (MCL [2]; organ culture with capsaicin-supplemented media) | ultimate stress (MCL [3]) | abnormalities in movement, body weight, or behavior [4] | mean ultimate tensile force (intact MCL) | strain at failure (intact MCL) | wet weight (intact MCL; tissue hydration) |
| --- | --- | --- | --- | --- | --- | --- | --- | --- | --- | --- | --- | --- | --- | --- | --- | --- | --- | --- | --- | --- |
| COc1cc(CNC(=O)CCCC/C=C/C(C)C)ccc1O [capsaicin] | hypercellular and disorganized | one MCL failed to heal; also recorded: healed poorly | 4.6 MPa | substantially reduced | No abnormalities | not significantly changed | 4.5±2.7 N | 2.7±1.9 MPa | 0.04 pmol/g | 0.042 pmol/g | 3.09 pmol/g | 0.09 pmol/g | 1.07 pmol/g | 66.0±4.7 MPa | no changes | – | – | – | – | – |
| N=C(N)NCCN1CCCCCCC1 [guanethidine] | – | – | – | – | – | – | – | – | – | – | – | – | – | – | – | 70.29±19.15 MPa | No abnormalities | not significantly decreased | 8.1±0.4% | 6.8 ± 0.7 g |
